Assay results as given in patent US20210332014A1, “CABOZANTINIB MALATE CRYSTAL FORM, PREPARATION METHOD AND USE THEREOF” (Crystal Pharmaceutical (Suzhou) Co., Ltd., priority 2018, published 2021).

How the values were obtained:
Format in all cases: physicochemical
[1] = Dynamic Vapor Sorption (DVS); conditions: humidity lower than 30% RH, 25° C.
Protocol: Dynamic Vapor Sorption (DVS) is measured via an SMS (Surface Measurement Systems Ltd.) intrinsic DVS instrument. […] Typical Parameters for DVS test are as follows: • Temperature: 25° C. • Gas and flow rate: N2, 200 mL/min • dm/dt=0.002 • RH range: 0% RH to 95% RH

[2] = Particle size distribution (laser particle size analyzer); conditions: wet mode, Isopar G
Protocol: The particle size distribution data in the present disclosure were acquired by an [MUT] laser particle size analyzer of Microtrac. Microtrac [MUT] is equipped with an SDC (Sample Delivery Controller). The test is carried out in wet mode, and the dispersion medium is Isopar G. The parameters are as follows:

[3] = Kinetic solubility study (saturated solutions, HPLC); conditions: for Solubility in H2O / Solubility in FaSSIF / Solubility in FeSSIF: 20 mg in 1.5 mL
Protocol: The HPLC method parameters for solubility test in the present disclosure are as follows: • 1. Column: Waters XBridge C18 150×4.6mm, 5 μm • 2. Mobile Phase: A: 0.1% TFA in H2O • B: 0.1% TFA in Acetonitrile • Gradient:
• 3. Flow rate: 1 mL/min • 4. Injection Volume: 5 μL • 5. Detection wavelength: 250 nm • 6. Column Temperature: 40° C. • 7. Diluent: Acetonitrile/H2O (9:1, v/v)
• Simulated gastrointestinal fluids such as FaSSIF (Fasted state simulated intestinal fluids) and FeSSIF (Fed state simulated intestinal fluids) are biorelevant media. […] After equilibrated for 1 h and 4 h, concentrations (mg/mL) of the saturated solutions were measured by HPLC.
• 20 mg of Form CSIII and 20 mg of crystalline forms in the prior arts were suspended into 1.5 mL of SGF, 1.5 mL of FaSSIF, 1.5 mL of FeSSIF and 1.5 mL of water to get saturated solutions. After equilibrated for 1 h and 4 h, concentrations (mg/mL) of the saturated solutions were measured by HPLC.

[4] = Flowability (compressibility index / Carr index); conditions: for Compressibility index: c=(ρf−ρ0)/ρf
Protocol: Compressibility index test method is as follows: a certain amount of powder was added into a measuring cylinder and bulk volume was recorded. Then the powder was tapped to make it in the tightest state and the tapped volume was recorded. The bulk density (ρ0), tapped density (ρf) were calculated and compressibility index was calculated according to c=(ρf−ρ0)/ρf. • Criteria of flowability according to United States Pharmacopoeia USP1174, which is shown in Table 7.

[5] = Adhesiveness (material sticking to the punch); conditions: for Average amount sticking to the punch / Maximum amount sticking to the punch: 30 mg, φ8 mm round tooling, 10 KN held 30 s
Protocol: • 30 mg of Form CSIII and crystalline forms in the prior art were weighed separately and then added into the dies of φ8 mm round tooling, compressed at 10 KN and held for 30 s. The punch was weighed and amount of material sticking to the punch was calculated. The compression was repeated twice and the cumulative amount, maximum amount and average amount of material sticking to the punch during the compression were recorded.

[6] = Compressibility (tensile strength of manually compressed tablet); conditions: for Average tensile strength: 80 mg, φ6 mm round tooling, 10 KN, average of three tests
Protocol: • Manual tablet press was used for compression. 80 mg of Form CSIII and crystalline forms in the prior art were weighed and added into the dies of a φ6 mm round tooling, respectively, compressed at 10 KN manually, then stored at room temperature for 24 h until complete elastic recovery. Hardness (H) was tested with an intelligent tablet hardness tester. Diameter (D) and thickness (L) were tested with caliper. Tensile strength of the powder was calculated with the following formula: T=2H/πDL.

| Solubility compared with prior art [3] | Solubility in H2O ([3]; water, equilibrated 1 h) [µg/mL] | Solubility in H2O ([3]; water, equilibrated 4 h) [µg/mL] | Bulk density [4] [g/mL] | Tapped density [4] [g/mL] | Compressibility index [4] [%] | Average amount sticking to the punch [5] [mg] | Maximum amount sticking to the punch [5] [mg] | Average tensile strength [6] [MPa] | Solubility in FaSSIF ([3]; equilibrated 1 h) [µg/mL] | Solubility in FaSSIF ([3]; equilibrated 4 h) [µg/mL] | Solubility in FeSSIF ([3]; equilibrated 1 h) [µg/mL] | Solubility in FeSSIF ([3]; equilibrated 4 h) [µg/mL] | Compound | further results |
| --- | --- | --- | --- | --- | --- | --- | --- | --- | --- | --- | --- | --- | --- | --- |
|  |  |  |  |  |  |  |  |  |  |  |  |  | COc1cc2nccc(Oc3ccc(NC(=O)C4(C(=O)Nc5ccc(F)cc5)CC4)cc3)c2cc1OC.O=C(O)C[C@H](O)C(=O)O [Form M2, N-(4-(6,7-dimethoxyquinolin-4-yloxy)phenyl)-N′-(4-fluorophenyl) cyclopropane-1,1-dicarboxamide (S)-malate] | Behaviour under humidity (DVS) [1]: dehydrated rapidly; D90 particle size [2]: 244.3 μm |
| higher than that of prior art | 350 | 360 |  |  |  |  |  |  |  |  |  |  | COc1cc2nccc(Oc3ccc(NC(=O)C4(C(=O)Nc5ccc(F)cc5)CC4)cc3)c2cc1OC.O=C(O)C[C@H](O)C(=O)O [Form CSI, N-(4-(6,7-dimethoxyquinolin-4-yloxy)phenyl)-N′-(4-fluorophenyl) cyclopropane-1,1-dicarboxamide (S)-malate] | Solubility in water relative to Form M4 ([3]; water): over five times more; Solubility in water relative to Form N-2 ([3]; water): twice |
| higher than that of prior art | 300 | 240 | 0.319 | 0.376 | 15 | 0.045 | 0.06 | 1.56 | 25 | 8.3 | 130 | 120 | COc1cc2nccc(Oc3ccc(NC(=O)C4(C(=O)Nc5ccc(F)cc5)CC4)cc3)c2cc1OC.O=C(O)C[C@H](O)C(=O)O [Form CSIII, N-(4-(6,7-dimethoxyquinolin-4-yloxy)phenyl)-N′-(4-fluorophenyl) cyclopropane-1,1-dicarboxamide (S)-malate] | Flowability compared with prior art [4]: remarkably superior to that of prior art; Adhesiveness compared with prior art form [5]: superior to the prior art form; Maximum amount sticking to the punch of the prior art relative to Form CSIII [5]: over twice; Compressibility compared with prior art [6]: better compressibility; Solubility relative to Form N-2 and Form M4 ([3]; FeSSIF and water): twice |
|  | 150 | 150 | 0.194 | 0.256 | 24 | 0.20 | 0.26 | 1.02 | 11 | 7.9 | 47 | 43 | COc1cc2nccc(Oc3ccc(NC(=O)C4(C(=O)Nc5ccc(F)cc5)CC4)cc3)c2cc1OC.O=C(O)C[C@H](O)C(=O)O [Form N-2, N-(4-(6,7-dimethoxyquinolin-4-yloxy)phenyl)-N′-(4-fluorophenyl) cyclopropane-1,1-dicarboxamide (S)-malate] |  |
|  | 72 | 2.8 | 0.251 | 0.387 | 35 | 0.08 | 0.11 | 1.23 | 12 | 1.9 | 62 | 65 | COc1cc2nccc(Oc3ccc(NC(=O)C4(C(=O)Nc5ccc(F)cc5)CC4)cc3)c2cc1OC.O=C(O)C[C@H](O)C(=O)O [Form M4, N-(4-(6,7-dimethoxyquinolin-4-yloxy)phenyl)-N′-(4-fluorophenyl) cyclopropane-1,1-dicarboxamide (S)-malate] |  |
